Experimental data as given in ChEMBL document CHEMBL6182889, “Discovery of the first-in-class DOT1L PROTAC degrader” (Eur J Med Chem, 2025).
Active and inactive are the calls of the source. No cut-off for these calls is given here.

What was measured:
[1] = molecular target: T1, von Hippel-Lindau disease tumor suppressor/Histone-lysine N-methyltransferase, H3 lysine-79 specific (Homo sapiens, UniProt Q8TEK3+P40337); experiment: PROTAC activity at VHL/DOT1L in mixed-lineage leukemia rearranged (MLL-r) human MV4-11 cells assessed as induction of DOTIL degradation by measuring fold change in DOT1L protein level at 3 uM incubated for 48 hrs by western blot analysis relative to control; format: cell-based
T1 sequence (P40337 whole entry, looked up): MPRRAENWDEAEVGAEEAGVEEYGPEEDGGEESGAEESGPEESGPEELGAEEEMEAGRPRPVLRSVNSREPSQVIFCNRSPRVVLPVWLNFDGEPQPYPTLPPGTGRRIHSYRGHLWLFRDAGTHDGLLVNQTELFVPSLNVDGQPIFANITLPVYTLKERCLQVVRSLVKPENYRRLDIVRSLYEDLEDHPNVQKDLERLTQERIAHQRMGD
T1 sequence (Q8TEK3 whole entry, looked up): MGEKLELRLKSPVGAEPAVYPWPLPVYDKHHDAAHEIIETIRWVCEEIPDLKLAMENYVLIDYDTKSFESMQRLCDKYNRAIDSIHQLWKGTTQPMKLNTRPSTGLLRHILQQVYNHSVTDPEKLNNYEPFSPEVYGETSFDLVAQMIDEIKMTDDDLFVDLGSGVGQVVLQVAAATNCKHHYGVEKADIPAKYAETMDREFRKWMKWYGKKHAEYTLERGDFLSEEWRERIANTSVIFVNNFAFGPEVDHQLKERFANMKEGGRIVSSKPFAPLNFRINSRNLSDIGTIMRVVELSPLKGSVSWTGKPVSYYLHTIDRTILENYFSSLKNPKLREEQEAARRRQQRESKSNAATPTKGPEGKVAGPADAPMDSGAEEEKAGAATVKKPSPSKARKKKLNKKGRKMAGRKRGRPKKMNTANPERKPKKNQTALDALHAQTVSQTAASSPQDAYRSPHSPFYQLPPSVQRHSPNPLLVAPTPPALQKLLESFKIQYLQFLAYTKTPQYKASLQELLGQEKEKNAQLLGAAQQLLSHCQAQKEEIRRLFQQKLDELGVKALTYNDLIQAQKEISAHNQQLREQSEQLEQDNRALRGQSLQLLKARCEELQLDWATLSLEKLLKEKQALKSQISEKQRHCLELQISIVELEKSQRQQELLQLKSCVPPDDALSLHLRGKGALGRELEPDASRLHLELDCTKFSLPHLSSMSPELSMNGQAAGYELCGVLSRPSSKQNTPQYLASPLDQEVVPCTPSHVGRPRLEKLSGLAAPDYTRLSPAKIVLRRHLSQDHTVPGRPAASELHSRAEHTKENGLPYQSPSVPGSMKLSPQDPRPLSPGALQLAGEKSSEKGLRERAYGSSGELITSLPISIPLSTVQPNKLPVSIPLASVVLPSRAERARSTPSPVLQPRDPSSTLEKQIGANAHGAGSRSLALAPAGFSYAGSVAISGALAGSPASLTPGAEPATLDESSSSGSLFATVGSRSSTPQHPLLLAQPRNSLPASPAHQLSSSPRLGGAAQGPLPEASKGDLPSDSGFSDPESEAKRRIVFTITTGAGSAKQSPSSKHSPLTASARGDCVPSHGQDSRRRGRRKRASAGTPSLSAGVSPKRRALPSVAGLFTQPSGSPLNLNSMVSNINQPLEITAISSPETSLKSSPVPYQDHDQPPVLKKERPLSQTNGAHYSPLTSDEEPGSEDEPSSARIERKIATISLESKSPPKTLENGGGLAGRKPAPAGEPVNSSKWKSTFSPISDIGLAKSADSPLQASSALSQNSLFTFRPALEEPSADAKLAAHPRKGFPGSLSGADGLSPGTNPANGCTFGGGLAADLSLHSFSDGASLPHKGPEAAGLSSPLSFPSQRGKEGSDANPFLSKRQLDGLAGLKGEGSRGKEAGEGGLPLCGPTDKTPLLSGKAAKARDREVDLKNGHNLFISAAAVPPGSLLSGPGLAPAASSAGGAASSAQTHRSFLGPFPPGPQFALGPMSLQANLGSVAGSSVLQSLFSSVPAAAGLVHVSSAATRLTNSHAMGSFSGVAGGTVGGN

[2] = molecular target: T1, von Hippel-Lindau disease tumor suppressor/Histone-lysine N-methyltransferase, H3 lysine-79 specific; experiment: PROTAC activity at VHL/DOT1L in mixed-lineage leukemia rearranged (MLL-r) human MV4-11 cells assessed as induction of DOTIL degradation by measuring fold change in H3K79Me2 level at 3 uM incubated for 2 hrs by western blot analysis relative to control; format: cell-based
[3] = molecular target: T2, Histone-lysine N-methyltransferase NSD2 (Homo sapiens) (UniProt O96028); experiment: Inhibition of human NSD2 using nucleosomes and SAM as substrate at 10 uM by radiometric Hotspot assay
T2 sequence (whole entry): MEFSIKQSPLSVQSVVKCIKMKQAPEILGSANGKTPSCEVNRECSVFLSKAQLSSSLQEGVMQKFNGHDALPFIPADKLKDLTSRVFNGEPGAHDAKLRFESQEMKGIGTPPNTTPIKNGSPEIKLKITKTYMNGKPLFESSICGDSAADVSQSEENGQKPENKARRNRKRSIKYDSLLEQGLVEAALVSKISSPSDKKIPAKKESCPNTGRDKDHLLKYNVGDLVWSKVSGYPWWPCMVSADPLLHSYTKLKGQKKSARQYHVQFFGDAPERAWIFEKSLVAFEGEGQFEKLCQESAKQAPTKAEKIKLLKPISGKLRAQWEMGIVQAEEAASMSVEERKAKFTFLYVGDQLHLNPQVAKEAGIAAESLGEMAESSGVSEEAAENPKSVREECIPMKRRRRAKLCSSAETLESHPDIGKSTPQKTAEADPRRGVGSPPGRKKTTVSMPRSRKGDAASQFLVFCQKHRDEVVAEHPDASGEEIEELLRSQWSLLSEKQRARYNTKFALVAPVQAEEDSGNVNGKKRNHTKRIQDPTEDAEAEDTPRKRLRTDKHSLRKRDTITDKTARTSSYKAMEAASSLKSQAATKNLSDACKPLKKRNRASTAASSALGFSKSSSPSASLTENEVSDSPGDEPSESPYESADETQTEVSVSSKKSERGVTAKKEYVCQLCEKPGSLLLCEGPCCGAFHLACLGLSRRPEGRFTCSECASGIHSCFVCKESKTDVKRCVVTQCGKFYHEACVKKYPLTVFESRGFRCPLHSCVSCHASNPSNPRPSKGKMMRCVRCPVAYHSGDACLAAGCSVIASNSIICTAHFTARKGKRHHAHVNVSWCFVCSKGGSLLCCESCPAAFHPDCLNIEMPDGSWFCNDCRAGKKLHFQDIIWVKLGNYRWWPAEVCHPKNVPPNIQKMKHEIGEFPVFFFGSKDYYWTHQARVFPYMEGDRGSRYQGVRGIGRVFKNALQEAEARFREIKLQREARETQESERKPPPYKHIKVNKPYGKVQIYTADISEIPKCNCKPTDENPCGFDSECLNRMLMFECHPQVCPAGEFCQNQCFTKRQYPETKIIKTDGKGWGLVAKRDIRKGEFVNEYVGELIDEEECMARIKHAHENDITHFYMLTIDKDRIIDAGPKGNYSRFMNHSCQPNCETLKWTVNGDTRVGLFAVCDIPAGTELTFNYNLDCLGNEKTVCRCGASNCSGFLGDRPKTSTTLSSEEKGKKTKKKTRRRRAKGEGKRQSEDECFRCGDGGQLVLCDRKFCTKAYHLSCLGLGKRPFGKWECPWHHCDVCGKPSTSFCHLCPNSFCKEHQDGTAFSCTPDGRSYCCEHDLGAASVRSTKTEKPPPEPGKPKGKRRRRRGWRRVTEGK

[4] = molecular target: T1, von Hippel-Lindau disease tumor suppressor/Histone-lysine N-methyltransferase, H3 lysine-79 specific; experiment: PROTAC activity at VHL/DOT1L in mixed-lineage leukemia rearranged (MLL-r) human MOLM-13 cells assessed as induction of DOT1L degradation at 0.3 to 3 uM by western blot analysis; format: cell-based; conditions: dose 0.3-3 µM
[5] = molecular target: T1, von Hippel-Lindau disease tumor suppressor/Histone-lysine N-methyltransferase, H3 lysine-79 specific; experiment: PROTAC activity at VHL/DOT1L in mixed-lineage leukemia rearranged (MLL-r) human THP-1 cells assessed as induction of DOTIL degradation by measuring fold change in H3K79Me2 level at 3 uM incubated for 8 hrs by western blot analysis relative to control; format: cell-based
[6] = molecular target: T1, von Hippel-Lindau disease tumor suppressor/Histone-lysine N-methyltransferase, H3 lysine-79 specific; experiment: PROTAC activity at VHL/DOT1L in mixed-lineage leukemia rearranged (MLL-r) human MV4-11 cells assessed as induction of DOTIL degradation by measuring fold change in H3K79Me2 level at 3 uM incubated for 4 hrs by western blot analysis relative to control; format: cell-based
[7] = molecular target: T1, von Hippel-Lindau disease tumor suppressor/Histone-lysine N-methyltransferase, H3 lysine-79 specific; experiment: PROTAC activity at VHL/DOT1L in mixed-lineage leukemia rearranged (MLL-r) human MV4-11 cells assessed as induction of DOTIL degradation by measuring fold change in H3K79Me2 level at 3 uM incubated for 24 hrs by western blot analysis relative to control; format: cell-based
[8] = molecular target: T1, von Hippel-Lindau disease tumor suppressor/Histone-lysine N-methyltransferase, H3 lysine-79 specific; experiment: PROTAC activity at VHL/DOTIL in mixed-lineage leukemia rearranged (MLL-r) human THP-1 cells assessed as induction of DOT1L degradation by measuring reduction in DOTIL protein level at 0.3 uM incubated for 24 hrs by western blot analysis relative to control; format: cell-based; design: scale not given: the % may be the effect or the level left
[9] = molecular target: T1, von Hippel-Lindau disease tumor suppressor/Histone-lysine N-methyltransferase, H3 lysine-79 specific; experiment: PROTAC activity at VHL/DOT1L in mixed-lineage leukemia rearranged (MLL-r) human MV4-11 cells assessed as induction of DOTIL degradation by measuring fold change in H3K79Me2 level at 3 uM incubated for 1 hr by western blot analysis relative to control; format: cell-based
[10] = molecular target: T1, von Hippel-Lindau disease tumor suppressor/Histone-lysine N-methyltransferase, H3 lysine-79 specific; experiment: PROTAC activity at VHL/DOT1L in mixed-lineage leukemia rearranged (MLL-r) human THP-1 cells assessed as induction of DOTIL degradation by measuring fold change in DOT1L protein level at 3 uM incubated for 2 hrs by western blot analysis relative to control; format: cell-based
[11] = molecular target: T1, von Hippel-Lindau disease tumor suppressor/Histone-lysine N-methyltransferase, H3 lysine-79 specific; experiment: PROTAC activity at VHL/DOT1L in mixed-lineage leukemia rearranged (MLL-r) human THP-1 cells assessed as induction of DOT1L degradation at 3 uM co-incubated with VHL ligand for 24 hrs by western blot analysis; format: cell-based
[12] = molecular target: Protein arginine N-methyltransferase 6 (Homo sapiens) (UniProt Q96LA8); experiment: Inhibition of PRMT6 (unknown origin) at 10 uM by radiometric methyltransferase assay
Protein arginine N-methyltransferase 6 (Homo sapiens), sequence (Q96LA8 whole entry, looked up): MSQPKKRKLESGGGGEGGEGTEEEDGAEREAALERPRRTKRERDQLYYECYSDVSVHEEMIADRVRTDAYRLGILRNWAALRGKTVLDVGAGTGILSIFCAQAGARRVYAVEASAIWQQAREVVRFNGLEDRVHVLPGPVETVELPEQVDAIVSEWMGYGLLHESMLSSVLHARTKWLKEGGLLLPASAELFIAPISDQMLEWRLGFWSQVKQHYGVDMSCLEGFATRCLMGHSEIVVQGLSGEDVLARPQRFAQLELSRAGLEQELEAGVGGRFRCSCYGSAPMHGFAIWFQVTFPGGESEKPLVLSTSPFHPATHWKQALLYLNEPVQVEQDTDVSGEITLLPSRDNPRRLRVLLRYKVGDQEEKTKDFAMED

[13] = molecular target: T1, von Hippel-Lindau disease tumor suppressor/Histone-lysine N-methyltransferase, H3 lysine-79 specific; experiment: PROTAC activity at VHL/DOT1L in mixed-lineage leukemia rearranged (MLL-r) human MV4-11 cells assessed as maximal induction of DOT1L degradation incubated for 24 hrs by western blot analysis relative to control; format: cell-based
[14] = molecular target: T1, von Hippel-Lindau disease tumor suppressor/Histone-lysine N-methyltransferase, H3 lysine-79 specific; experiment: PROTAC activity at VHL/DOT1L in mixed-lineage leukemia rearranged (MLL-r) human THP-1 cells assessed as induction of DOTIL degradation by measuring fold change in H3K79Me2 level at 3 uM incubated for 1 hr by western blot analysis relative to control; format: cell-based
[15] = molecular target: T1, von Hippel-Lindau disease tumor suppressor/Histone-lysine N-methyltransferase, H3 lysine-79 specific; experiment: PROTAC activity at VHL/DOT1L in mixed-lineage leukemia rearranged (MLL-r) human THP-1 cells assessed as induction of DOTIL degradation by measuring fold change in DOT1L protein level at 3 uM incubated for 4 hrs by western blot analysis relative to control; format: cell-based

fold change (FC) [1]: 0.03
fold change (FC) [2]: 0.41
inhibition [3]: inactive
Activity [4]: Active
fold change (FC) [5]: 1.13
fold change (FC) [6]: 0.32
fold change (FC) [7]: 0.17
Activity [8]: 70%
fold change (FC) [9]: 0.34
fold change (FC) [10]: 0.36
Activity [11]: inactive
inhibition [12]: inactive
Activity [13]: 93%
fold change (FC) [14]: 0.99
fold change (FC) [15]: 0.4
Structure (SMILES): Cc1ncsc1-c1ccc([C@H](CC(=O)NCCCCCCNC(=O)COc2nc(N)nc(Nc3cc(S(N)(=O)=O)ccc3N[C@@H](c3cccc4c3OC(F)(F)O4)c3ncccc3Cl)n2)NC(=O)[C@@H]2C[C@@H](O)CN2C(=O)[C@@H](NC(=O)C2(F)CC2)C(C)(C)C)cc1
